Consider 26 compounds from patent US20250099478A1, “PLASMA KALLIKREIN INHIBITORS” (Merck Sharp & Dohme LLC, priority 2022, published 2025).

Usually IC50 stands for the concentration at which inhibition is half-maximal.

T1 sequence (P03952 391-638 limits assumed): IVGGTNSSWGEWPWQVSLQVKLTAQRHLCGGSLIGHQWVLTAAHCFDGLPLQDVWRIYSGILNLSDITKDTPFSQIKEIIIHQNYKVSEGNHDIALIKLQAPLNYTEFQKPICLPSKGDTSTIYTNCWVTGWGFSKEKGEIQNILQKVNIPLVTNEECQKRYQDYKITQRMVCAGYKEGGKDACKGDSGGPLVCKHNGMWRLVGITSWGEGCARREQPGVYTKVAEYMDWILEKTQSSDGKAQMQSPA
T1 sequence (P03952 20-390 partner limits assumed): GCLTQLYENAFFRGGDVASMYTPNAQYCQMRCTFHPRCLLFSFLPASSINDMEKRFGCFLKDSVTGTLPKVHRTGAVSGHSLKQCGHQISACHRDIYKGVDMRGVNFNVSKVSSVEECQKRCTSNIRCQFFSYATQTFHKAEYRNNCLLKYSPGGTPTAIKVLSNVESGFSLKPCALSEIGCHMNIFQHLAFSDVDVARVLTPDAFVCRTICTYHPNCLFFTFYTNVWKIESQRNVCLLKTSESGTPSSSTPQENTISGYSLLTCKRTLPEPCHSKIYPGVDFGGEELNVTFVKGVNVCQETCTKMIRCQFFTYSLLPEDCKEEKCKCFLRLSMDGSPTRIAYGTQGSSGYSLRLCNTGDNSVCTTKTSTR

This experiment concerns the target T1, Human plasma kallikrein (Homo sapiens, UniProt P03952).
T1 construct: yields a heavy chain (371 amino acids) and a light chain (248 amino acids); purchased Enzyme Research Laboratories
Description: Plasma Kallikrein Assay. The conditions noted are these: purified Human plasma kallikrein 0.5 nM, substrate Acetyl-K-P-R-AFC; read-out: PKal IC50. Type of experiment: biochemical. The protocol: The effectiveness of a compound of the present invention as an inhibitor of plasma kallikrein can be determined using a relevant purified serine protease, and an appropriate synthetic substrate. The rate of hydrolysis of the chromogenic or fluorogenic substrate by the relevant serine protease was measured both in the absence and presence of compounds of the present invention. Assays were conducted at rt or at 37° C. […] A decrease in the rate of fluorescence change in the presence of inhibitor is indicative of enzyme inhibition. Such methods are known to one skilled in the art. The results of this assay are expressed as the half-maximal inhibitory concentrations (IC50), or the inhibitory constant, Ki.
Plasma kallikrein determinations were made in 50 mM HEPES buffer at pH 7.4 containing 150 mM NaCl, 5 mM CaCl2), and 0.1% PEG 8000 (polyethylene glycol; Fisher Scientific). Determinations were made using purified Human plasma kallikrein at a final concentration of 0.5 nM (Enzyme Research Laboratories) and the synthetic substrate, Acetyl-K-P-R-AFC (Sigma #C6608) at a concentration of […].
Times required to achieve equilibration between enzyme and inhibitor were determined in control experiments. […] IC50 was determined by inflection point from a four parameter logistic curve fit. Ki was calculated using the Cheng Prusoff equation, Ki=IC50/(1+([S]/Km)).
As for `O=C1Nc2ccc(Cl)c(F)c2[C@@]2(CCCN(C(=O)c3nnc(Cc4ccc5c(c4)OCO5)[nH]3)C2)O1` [Example 119, (R)-1′-(5-(Benzo[d][1,3]dioxol-5-ylmethyl)-4H-1,2,4-triazole-3-carbonyl)-6-chloro-5-fluorospiro[benzo[d][1,3]oxazine-4,3′-piperidin]-2(1H)-one], the IC50 came out at 47.1 nM. As to `O=C1Nc2ccc(Cl)c(F)c2[C@@]2(CCCN(C(=O)c3nnc(Cc4cc(Cl)c5nc[nH]c5c4)[nH]3)C2)O1` [Example 122, (R)-6-Chloro-1′-(5-((4-chloro-1H-benzo[d]imidazol-6-yl)methyl)-4H-1,2,4-triazole-3-carbonyl)-5-fluorospiro[benzo[d][1,3]oxazine-4,3′-piperidin]-2(1H)-one], the IC50 is 17.5 nM. To `O=C1Nc2ccc(Cl)c(F)c2[C@]2(CCN(C(=O)c3cnn(Cc4ccc(Cn5ccccc5=O)cc4)c3)C2)O1` [Example 132] belongs 6.1 nM; to `CC(c1ccccc1)n1cc(C(=O)N2CCC[C@@]3(C2)OC(=O)Nc2ccc(Cl)c(F)c23)cn1` (single isomer, unassigned) [Example 24], 38.3 nM; to `O=C1Nc2ccc(Cl)c(F)c2[C@@]2(CCCN(C(=O)c3nnc([C@](O)(c4ccccc4)C(F)(F)F)[nH]3)C2)O1` [Example 108, (R)-6-Chloro-5-fluoro-1′-(5-((R)-2,2,2-trifluoro-1-hydroxy-1-phenylethyl)-4H-1,2,4-triazole-3-carbonyl)spiro[benzo[d][1,3]oxazine-4,3′-piperidin]-2(1H)-one], 20.1 nM. To `O=C1Nc2ccc(Cl)c(F)c2[C@@]2(CCCN(C(=O)c3nnc(Cc4ccc(CO)c(Cl)c4)[nH]3)C2)O1` [Example 125, (R)-6-Chloro-1′-(5-(3-chloro-4-(hydroxymethyl)benzyl)-4H-1,2,4-triazole-3-carbonyl)-5-fluorospiro[benzo[d][1,3]oxazine-4,3′-piperidin]-2(1H)-one] belongs 20.3 nM; to `O=C1Nc2ccc(Cl)c(F)c2[C@@]2(CCCN(C(=O)c3cnn(Cc4ccc(F)c(F)c4)c3)C2)O1` [Example 4, (R)-6-Chloro-1′-(1-(3,4-difluorobenzyl)-1H-pyrazole-4-carbonyl)-5-fluorospiro[benzo[d][1,3]oxazine-4,3′-piperidin]-2(1H)-one], 20 nM; to `Cc1nc(Cn2cc(C(=O)N3CCC[C@@]4(C3)OC(=O)Nc3ccc(Cl)c(F)c34)cn2)sc1C` [Example 18, (R)-6-Chloro-1′-(1-((4,5-dimethylthiazol-2-yl)methyl)-1H-pyrazole-4-carbonyl)-5-fluorospiro[benzo[d][1,3]oxazine-4,3′-piperidin]-2(1H)-one], 50.4 nM.

For `O=C1Nc2ccc(Cl)c(F)c2[C@@]2(CCCN(C(=O)c3nnc(Cc4ccccc4F)[nH]3)C2)O1` [Example 114, (R)-6-Chloro-5-fluoro-1′-(5-(2-fluorobenzyl)-4H-1,2,4-triazole-3-carbonyl)spiro[benzo[d][1,3]oxazine-4,3′-piperidin]-2(1H)-one], the IC50 is 33.1 nM. On to `O=C1Nc2ccc(Cl)c(F)c2[C@@]2(CCCN(C(=O)c3cnn(Cc4cnc5ccccn45)c3)C2)O1` [Example 19, (R)-6-Chloro-5-fluoro-1′-(1-(imidazo[1,2-a]pyridin-3-ylmethyl)-1H-pyrazole-4-carbonyl)spiro[benzo[d][1,3]oxazine-4,3′-piperidin]-2(1H)-one], for which the IC50 amounted to 27 nM.

With `NS(=O)(=O)c1cccc(Cn2cc(C(=O)N3CCC[C@@]4(C3)OC(=O)Nc3ccc(Cl)c(F)c34)cn2)c1` [Example 62, (R)-3-((4-(6-chloro-5-fluoro-2-oxo-1,2-dihydrospiro[benzo[d][1,3]oxazine-4,3′-piperidine]-1′-carbonyl)-1H-pyrazol-1-yl)methyl)benzenesulfonamide], the IC50 came to 49.5 nM. To `O=C1Nc2ccc(Cl)c(F)c2[C@@]2(CCCN(C(=O)c3cnn(Cc4ccc5c(c4)COC5)c3)C2)O1` [Example 60, (R)-6-chloro-1′-(1-((1,3-dihydroisobenzofuran-5-yl)methyl)-1H-pyrazole-4-carbonyl)-5-fluorospiro[benzo[d][1,3]oxazine-4,3′-piperidin]-2(1H)-one] belongs 14.7 nM. To `O=C1Nc2ccc(Cl)c(F)c2[C@@]2(CCCN(C(=O)c3nnc(Cc4cc(F)cc(Cl)c4)[nH]3)C2)O1` [Example 121, (R)-6-Chloro-1′-(5-(3-chloro-5-fluorobenzyl)-4H-1,2,4-triazole-3-carbonyl)-5-fluorospiro[benzo[d][1,3]oxazine-4,3′-piperidin]-2(1H)-one] belongs 35.4 nM; to `O=C1Nc2ccc(Cl)c(F)c2[C@]2(CCN(C(=O)c3cn(Cc4ccc(Cn5ccccc5=O)cc4)nc3C(F)(F)F)C2)O1` [Example 135, (S)-6-Chloro-5-fluoro-1′-(1-(4-((2-oxopyridin-1(2H)-yl)methyl)benzyl)-3-(trifluoromethyl)-1H-pyrazole-4-carbonyl)spiro[benzo[d][1,3]oxazine-4,3′-pyrrolidin]-2(1H)-one], 7.5 nM. With `O=C1Nc2ccc(Cl)c(F)c2[C@@]2(CCCN(C(=O)c3cnn(Cc4ccc(F)c(Cl)c4)c3)C2)O1` [Example 6, (R)-6-Chloro-1′-(1-(3-chloro-4-fluorobenzyl)-1H-pyrazole-4-carbonyl)-5-fluorospiro[benzo[d][1,3]oxazine-4,3′-piperidin]-2(1H)-one] the figure was 8 nM; with `CC(c1ccccc1)n1cc(C(=O)N2CCC[C@@]3(C2)OC(=O)Nc2ccc(Cl)c(F)c23)cn1` (single isomer, unassigned) [Example 23], 46 nM; with `Cc1ccc(Cc2nnc(C(=O)N3CCC[C@@]4(C3)OC(=O)Nc3ccc(Cl)c(F)c34)[nH]2)cc1C` [Example 126, (R)-6-Chloro-1′-(5-(3,4-dimethylbenzyl)-4H-1,2,4-triazole-3-carbonyl)-5-fluorospiro[benzo[d][1,3]oxazine-4,3′-piperidin]-2(1H)-one], 33.1 nM. Take `O=C1Nc2ccc(Cl)c(F)c2[C@@]2(CCCN(C(=O)c3cnn(Cc4ccc5c(c4)CNC5=O)c3)C2)O1` [Example 61, (R)-6-chloro-5-fluoro-1′-(1-((1-oxoisoindolin-5-yl)methyl)-1H-pyrazole-4-carbonyl)spiro[benzo[d][1,3]oxazine-4,3′-piperidin]-2(1H)-one]: the IC50 was 36.5 nM.

For the compound `N#Cc1ccc(Cn2cc(C(=O)N3CCC[C@@]4(C3)OC(=O)Nc3ccc(Cl)c(F)c34)cn2)cc1Cl` [Example 47, (R)-2-Chloro-4-((4-(6-chloro-5-fluoro-2-oxo-1,2-dihydrospiro[benzo[d][1.3]oxazine-4,3′-piperidine]-1′-carbonyl)-1H-pyrazol-1-yl)methyl)benzonitrile], the IC50 is 27.1 nM.

As for `O=C1Nc2ccc(Cl)c(F)c2[C@@]2(CCCN(C(=O)c3cnn(Cc4cccc(C(F)(F)F)c4)c3)C2)O1` [Example 5, (R)-6-Chloro-5-fluoro-1′-(1-(3-(trifluoromethyl)benzyl)-1H-pyrazole-4-carbonyl)spiro[benzo[d][1,3]oxazine-4,3′-piperidin]-2(1H)-one], the IC50 is 23.1 nM.

On to `CS(=O)(=O)c1cccc(Cn2cc(C(=O)N3CCC[C@@]4(C3)OC(=O)Nc3ccc(Cl)c(F)c34)cn2)c1` [Example 63, (R)-6-chloro-5-fluoro-1′-(1-(3-(methylsulfonyl)benzyl)-1H-pyrazole-4-carbonyl)spiro[benzo[d][1,3]oxazine-4,3′-piperidin]-2(1H)-one], for which the IC50 is 42.6 nM.

As for `O=C1Nc2ccc(Cl)c(F)c2[C@]2(CCN(C(=O)C3CCN(Cc4ccc(Cn5ccccc5=O)cc4)C3)C2)O1` (single isomer, unassigned) [Example 136], the IC50 was determined as 43.2 nM. To `O=C1Nc2ccc(Cl)c(F)c2[C@@]2(CCCN(C(=O)c3cnn(Cc4ccc5c(c4)OCCO5)c3)C2)O1` [Example 54, (R)-6-Chloro-1′-(1-((2,3-dihydrobenzo[b][1,4]dioxin-6-yl)methyl)-1H-pyrazole-4-carbonyl)-5-fluorospiro[benzo[d][1,3]oxazine-4,3′-piperidin]-2(1H)-one] belongs 29.8 nM; to `O=C1Nc2ccc(Cl)c(F)c2[C@@]2(CCCN(C(=O)c3cnn(Cc4ccc5ccsc5c4)c3)C2)O1` [Example 55, (R)-1′-(1-(Benzo[b]thiophen-6-ylmethyl)-1H-pyrazole-4-carbonyl)-6-chloro-5-fluorospiro[benzo[d][1,3]oxazine-4,3′-piperidin]-2(1H)-one], 17.1 nM; to `CC1(C)COc2cc(Cn3cc(C(=O)N4CCC[C@@]5(C4)OC(=O)Nc4ccc(Cl)c(F)c45)cn3)ccc21` [Example 59, (R)-6-Chloro-1′-(1-((3,3-dimethyl-2,3-dihydrobenzofuran-6-yl)methyl)-1H-pyrazole-4-carbonyl)-5-fluorospiro[benzo[d][1,3]oxazine-4,3′-piperidin]-2(1H)-one], 22.9 nM. Regarding `O=C1Nc2ccc(Cl)c(F)c2[C@@]2(CCCN(C(=O)c3cnn(Cc4cncc(Cl)c4)c3)C2)O1` [Example 12, (R)-6-Chloro-1′-(1-((5-chloropyridin-3-yl)methyl)-1H-pyrazole-4-carbonyl)-5-fluorospiro[benzo[d][1,3]oxazine-4,3′-piperidin]-2(1H)-one], the IC50 was 26.4 nM.
